Reference: patent US20160045463A1, “USE OF METALLOPROTEASE INHIBITORS IN THE TREATMENT OF POLYCYSTIC LIVER DISEASES” (UNIVERSIDAD DE SALAMANCA, priority 2012, published 2016)

How the values were obtained:
[1] = 0.2856 mg/kg/day; patients with colorectal cancer; cited from earlier work
[2] = tested on: polycystic human cholangiocytes; experiment: Metalloproteolytic activity of culture supernatants, ES001 fluorogenic peptide cleavage; type: cell-based; conditions: polycystic cholangiocytes; 13-cis-retinoic acid 10 μM/ml or Marimastat 200 μM/ml; p<0.01; FIG. 21
Description: (§1) Metalloproteolytic or metalloprotease activity was measured in supernatants of cultures of normal human cholangiocytes and polycystic human cholangiocytes by an assay based on the cleavage of the ES001 fluorogenic synthetic peptide (R&D Systems Minneapolis, Minn., USA) that emits fluorescence proportional to metalloproteolytic activity. The substrate Mca-Pro-Leu-Gly-Leu-Dpa-Ala-Arg-NH2 [Mca: (7-Methoxycoumarin-4-yl)acetyl, Dpa: N-3-(2,4-Dinitrophenyl)-L-2,3-diaminopropionyl] (Knight C G, et al. FEBS Letters 1992; 296:263) is lysed between glycine and leucine by the action of the MMPs, especially MMP-1 (collagenase 1), MMP-2 (gelatinase A), MMP-7 (matrilysin), MMP-8 (collagenase 2), MMP-9 (gelatinase B), MMP-12 (macrophage elastase), MMP-13 (collagenase 3), MMP-14 (MT1-MMP), MMP-15 (MT2-MMP) and MMP-16 (MT3-MMP).
(§2) The basal metalloproteolytic activity of normal human cholangiocyte and polycystic human cholangiocytes cultures was determined by trypsinising the contents of 250 ml flasks and counting the number of cells in an inverted optical microscope using a Neubauer camera and a ½ dilution of the cell solution with trypan blue (Sigma). Next, 300,000 cells were seeded in each well of a 6-well plate and incubated with enriched DMEM/F-12 medium for 24 hours. After this time, the cells were washed with PBS and the culture medium changed for 2 ml of quiescent medium (DMEM/F-12, 1% FBS and 1% P/S) and incubated for 6 hours at 37° C./5% CO2. The supernatant was collected from each well and centrifuged at 4° C. for 10 minutes at 1,500 rpm to remove the dead cells present in the supernatant. The supernatant was concentrated 50 times using a 15 kDa (Millipore) Amicon Ultra concentrator. Next the concentrated supernatant was incubated for 2 hours at 37° C. with the ES001 fluorogenic peptide at a final concentration of 10 μM. Also, GM6001 (a global MMP inhibitor) and aprotinin (a global inhibitor of serine proteases) (both from Sigma-Aldrich) were used as controls of the specificity of the analysis of MMP activity in the assay. Recombinant MMP-10 (kindly provided by Dr. José Antonio Rodriguez Garcia, Laboratorio de Ateroesclerosis e Inflamación del CIMA, Universidad de Navarra) was used as a positive control and DMEM/F-12 medium without serum was used as the negative control. The fluorescence determination was kinetically measured in a Spectra MAX GeminiXS (Molecular Devices Sunnyvale, Calif., USA) spectrophotometer at excitation-emission wavelengths of 320-405 nm. The fluorescence intensity emitted by the culture medium was extracted from the metalloproteolytic activity values. The metalloproteolytic activity was calculated from the tangent to the curve of the fluorescence values using at least six different points over time for each type of cell and condition.
(§3) To analyse the effect of various stimuli on the metalloproteolytic activity of normal and polycystic human cholangiocytes cultures, a protocol similar to that described before in Example 2 was followed, but in this case the incubation of the cells was with quiescent medium (i.e. DMEM/F12, […]) in the presence of the corresponding stimulus (Table 3). Next, the same procedure as described for the analysis of basal metalloproteolytic activity was followed as described in Example 2.
(§4) Taking into account that: i) basal activity of polycystic human cholangiocytes in culture is greater than that of normal human cholangiocytes and ii) that IL-6 and IL-8 increased the metalloproteolytic activity of normal and polycystic human cholangiocytes, the role of these two cytokines on metalloproteolytic hyperactivity of polycystic human cholangiocytes using antibodies against the receptors of IL-6 (IL6R) and/or IL-8 (CXCR1) was investigated. […]

[3] = tested on: normal human cholangiocytes; experiment: as above; type: cell-based; conditions: normal cholangiocytes; 13-cis-retinoic acid 10 μM/ml or Marimastat 200 μM/ml; p<0.01; FIG. 21
Description: as §1, §2, §3, §4

[4] = cited from earlier work

SMILES: CNC(=O)[C@@H](NC(=O)[C@H](CC(C)C)[C@H](O)C(=O)NO)C(C)(C)C [Marimastat, N-[2,2-dimethyl-1-(methylcarbamoyl)propyl]-2-[hydroxy-(hydroxycarbamoyl)methyl]-4-methyl-pentanamide]
- toxicity at dose used in clinical trials [1]: does not cause toxicity
- basal metalloproteolytic activity in presence of inhibitor [2]: inhibited
- basal metalloproteolytic activity in presence of inhibitor [3]: inhibited
- oral bioavailability ([4]; compared with Batimastat): better oral bioavailability
- toxicity ([4]; compared with Batimastat): less toxicity
- elimination half-life ([4]; in vivo): 8 to 10 h
